The results in this text go back to PMC12280126, “Potent β-lactam-based tyrosyl-DNA phosphodiesterase 1 inhibitors identified by a virtual screen” (Scientific Reports, 2025).

Molecules are shown by their SMILES. Where “and” joins values, the source holds several entries; their conditions need not be identical. Equal values may be shown once. Where a name gives a salt, the structure may show the parent alone.

The target of one test is T1, recombinant TDP1 (Homo sapiens, UniProt Q9NUW8).
T1 construct: incubated with 40 pM full-length recombinant TDP1 or TDP1 (148–608)
T1 sequence (Q9NUW8 whole entry): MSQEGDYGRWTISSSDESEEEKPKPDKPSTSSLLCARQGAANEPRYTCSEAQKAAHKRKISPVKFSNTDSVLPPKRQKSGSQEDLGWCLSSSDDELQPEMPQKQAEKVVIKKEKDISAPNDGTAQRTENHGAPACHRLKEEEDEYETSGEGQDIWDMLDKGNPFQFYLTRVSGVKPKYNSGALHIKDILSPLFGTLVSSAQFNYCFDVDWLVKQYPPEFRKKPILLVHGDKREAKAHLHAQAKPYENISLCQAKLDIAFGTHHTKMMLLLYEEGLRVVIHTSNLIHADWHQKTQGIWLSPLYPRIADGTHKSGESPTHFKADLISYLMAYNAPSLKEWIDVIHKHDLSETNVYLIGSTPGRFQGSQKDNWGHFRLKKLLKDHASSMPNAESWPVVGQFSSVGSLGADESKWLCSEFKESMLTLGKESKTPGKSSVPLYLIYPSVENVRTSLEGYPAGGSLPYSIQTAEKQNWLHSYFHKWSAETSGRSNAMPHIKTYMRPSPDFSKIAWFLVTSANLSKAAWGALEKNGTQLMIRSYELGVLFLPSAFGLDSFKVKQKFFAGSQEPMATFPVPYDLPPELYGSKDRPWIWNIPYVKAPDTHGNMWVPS
Briefly: in vitro gel-based fluorescence TDP1 catalytic assay. The class given is biochemical. The note with it: 40 pM recombinant TDP1, 1 nM N14Y DNA substrate, 15 min, room temperature; read-out: TDP1 IC50. On the procedure:
We subjected select virtual screen hits to evaluation of TDP1 inhibitory potencies using in vitro gel-based fluorescence TDP1 catalytic assays (Fig. 2). […] To further explore this class of compounds, we purchased from TargetMol a library of approximately 90 β-lactams as 10 mM solutions in DMSO. […] We examined TDP1 inhibitory potencies of the compounds using the in vitro gel-based fluorescence assays as previously described[21]–[24]. Briefly, a 5’-Cy5-labeled DNA substrate (N14Y, 5’-Cy5-[…]-pY-3’, 1 nM) was incubated in TDP1 reaction buffer with recombinant TDP1 or truncated TDP1(148–608) (40 pM) in the absence or presence of inhibitors for 15 min at room temperature. […] The TDP1 inhibition IC50 values were calculated based on gel images of the cleavage product (N14P, 5’-Cy5-[…]-p-3’) (Fig. 3A and Table S2).
The inhibition of TDP1 and TDP2 were conducted according to gel-based methods as previously described[21]–[24],[45]. Briefly, 1 nM of the DNA substrate (N14Y, 5´Cy5-[…]-pY-3´) was incubated with 40 pM full-length recombinant TDP1 or TDP1 (148–608) in the absence or presence of inhibitors for 15 min at room temperature in TDP1 reaction buffer (50 mM Tris-HCl, pH 7.5, 80 mM KCl, 2 mM EDTA, 1 mM DTT, 40 µg/mL BSA and 0.01% Tween 20). The inhibition of TDP2 was also conducted by using similar conditions. […] The reactions of both TDP1 and TDP2 were stopped by adding an equal volume of gel loading buffer (99.5% (v/v) formamide, 5 mM EDTA). The samples were then subjected to a 20% denaturing PAGE gel followed by gel scanning using a Typhoon FLA 9500 scanner (GE Healthcare). The IC50 values of the TDP1 inhibitors were calculated by comparing the percentage of the cleavage product (N14P, 5´Cy5-[…]-p-3´) produced to that in the DMSO control. The IC50 values of the TDP2 inhibitors were calculated by comparing the percentage of the cleavage product (PN18, 5’-p-[…]-Cy5-3’) produced to that in the DMSO control.
Usually IC50 stands for the midpoint of a concentration-inhibition curve. Regarding `CO/N=C(\C(=O)N[C@@H]1C(=O)N2C(C(=O)O)=C(COC(C)=O)CS[C@H]12)c1csc(N)n1` [LA1, Cefotaxime sodium], the IC50 is over 1000 µM. For `Cc1nnc(SCC2=C(C(=O)O)N3C(=O)[C@@H](NC(=O)Cn4cnnn4)[C@H]3SC2)s1` [LA3, Cefazolin], the IC50 is over 1000 µM. For `CC(=O)OCC1=C(C(=O)O)N2C(=O)[C@@H](NC(=O)CSC(=NC(C)C)NC(C)C)[C@H]2SC1` [LA4, Cefathiamidine], the half-maximal inhibitory concentration (IC50) is over 1000 µM. Turning to `CO/N=C(\C(=O)N[C@@H]1C(=O)N2C(C(=O)O)=C(CSc3nc(C)c(CC(=O)O)s3)CS[C@H]12)c1csc(N)n1` [LA5, Cefodizime Sodium], the IC50 was over 1000 µM.

In the case of `CC1(C)S[C@@H]2[C@H](NC(=O)C(c3ccccc3)S(=O)(=O)O)C(=O)N2[C@H]1C(=O)O` (stereo partly shown) [LA6, Sulbenicillin Sodium], the IC50 was over 1000 µM.

`Cc1nnc(SCC2=C(C(=O)O)N3C(=O)[C@@H](NC(=O)Cn4cc(Cl)c(=O)c(Cl)c4)[C@H]3SC2)s1` [LA8, Cefazedone]: the IC50 is over 1000 µM. Regarding `CCO/N=C(\C(=O)N[C@@H]1C(=O)N2C(C(=O)[O-])=C(Sc3nc(-c4cc[n+](C)cc4)cs3)CS[C@H]12)c1nsc(NP(=O)(O)O)n1` [LA11, Ceftaroline fosamil], the concentration for half-maximal inhibition (IC50) was over 1000 µM. Same read-out and setting: to `CO/N=C(\C(=O)N[C@@H]1C(=O)N2C(C(=O)O)=C(C[N+]3(C)CCCC3)CS[C@H]12)c1csc(N)n1` [LB1, Cefepime Dihydrochloride Monohydrate] belongs over 1000 µM; to `CO[C@@]1(NC(=O)C2SC(=C(C(N)=O)C(=O)O)S2)C(=O)N2C(C(=O)O)=C(CSc3nnnn3C)CS[C@@H]21` (stereo partly shown) [LB4, Cefotetan], 379 µM; to `CC1(C)S[C@@H]2[C@H](NC(=O)[C@H](C(=O)O)c3ccsc3)C(=O)N2[C@H]1C(=O)O` [LB5, Ticarcillin sodium], over 1000 µM.

For `CO/N=C(\C(=O)N[C@@H]1C(=O)N2C(C(=O)O)=C(Cn3ccc(=N)n3CCO)CS[C@H]12)c1csc(N)n1` [LB7, Cefoselis Sulfate], the IC50 was over 1000 µM. Turning to `CCN1CCN(C(=O)N[C@@H](C(=O)N[C@@H]2C(=O)N3C(C(=O)O)=C(CSc4nnnn4C)CS[C@H]23)c2ccc(O)cc2)C(=O)C1=O` [LB8, Cefoperazone], the IC50 was over 1000 µM. On the same count and under the same terms, next, `C=CC1=C(C(=O)O)N2C(=O)[C@@H](NC(=O)/C(=N\O)c3csc(N)n3)[C@H]2SC1` [LB10, Cefdinir]: over 1000 µM. As to `CC1=C(C(=O)O)N2C(=O)C(N)C2SC1` (stereo not shown) [LB12, Cefalexine EP IMpurity B], the IC50 was over 1000 µM. `NC(=O)c1cc[n+](CC2=C(C(=O)O)N3C(=O)[C@@H](NC(=O)[C@@H](c4ccccc4)S(=O)(=O)[O-])[C@H]3SC2)cc1` [LC1, Cefsulodine sodium]: the IC50 is over 1000 µM. Take `CO[C@@]1(NC(=O)C(C(=O)O)c2ccc(O)cc2)C(=O)N2C(C(=O)O)=C(CSc3nnnn3C)CO[C@@H]21` (stereo partly shown) [LC4, Latamoxef sodium]: the IC50 was 179 µM and 180 µM. Take `C[C@@H](O)[C@H]1C(=O)N2C(C(=O)O)=C([C@H]3CCCO3)S[C@H]12` [LC7, Faropenem sodium]: the IC50 was over 1000 µM. In the case of `CC(=O)OCC1=C(C(=O)O)N2C(=O)[C@@H](NC(=O)CSc3ccncc3)[C@H]2SC1` [LC8, Cephapirin Sodium], the half-maximal inhibitory concentration (IC50) amounted to 496 µM. Consider `NCc1ccccc1CC(=O)N[C@@H]1C(=O)N2C(C(=O)O)=C(CSc3nnnn3CC(=O)O)CS[C@H]12` [LC10, Ceforanide], for which the IC50 came to 378 µM. `COCC1=C(C(=O)OC(C)OC(=O)OC(C)C)N2C(=O)[C@@H](NC(=O)/C(=N\OC)c3csc(N)n3)[C@H]2SC1` (stereo partly shown) [LD2, Cefpodoxime proxetil]: the IC50 was over 1000 µM.

On to `CO/N=C(\C(=O)N[C@@H]1C(=O)N2C(C(=O)[O-])=C(C[n+]3cccc4c3CCC4)CS[C@H]12)c1csc(N)n1` [LD3, Cefpirome sulfate], for which the IC50 is over 1000 µM. Consider `Cn1nnnc1SCC1=C(C(=O)O)N2C(=O)[C@@H](NC(=O)[C@H](OC=O)c3ccccc3)[C@H]2SC1` [LD4, Cefamandole nafate], for which the 50% inhibitory concentration (IC50) was over 1000 µM. Same read-out and setting: next, `C[C@@H](O)[C@H]1C(=O)N2C(C(=O)O)=C(S[C@@H]3CN[C@H](C(=O)Nc4cccc(C(=O)O)c4)C3)[C@H](C)[C@H]12` [LD5, Ertapenem sodium]: over 1000 µM; `CC/C=C(\C(=O)N[C@@H]1C(=O)N2C(C(=O)OCOC(=O)C(C)(C)C)=C(COC(N)=O)CS[C@H]12)c1csc(N)n1` [LD6, Cefcapene Pivoxil Hydrochloride]: over 1000 µM; `Nc1nc(/C(=C/CC(=O)O)C(=O)N[C@@H]2C(=O)N3C(C(=O)O)=CCS[C@H]23)cs1` [LD10, Ceftibuten dihydrate]: over 1000 µM.

Take `CO/N=C(\C(=O)N[C@@H]1C(=O)N2C(C(=O)[O-])=C(C[n+]3cccc4c3CCCC4)CS[C@H]12)c1csc(N)n1` [LD11, Cefquinome sulfate]: the IC50 is over 1000 µM. Regarding `CC1=C(C(=O)O)N2C(=O)[C@@H](NC(=O)[C@H](N)c3ccc(O)cc3)[C@H]2SC1` [LE1, Cefadroxil], the IC50 was over 1000 µM. Same read-out and setting: next, `CC1(C)S[C@@H]2[C@H](NC(=O)[C@H](N)c3ccccc3)C(=O)N2[C@H]1C(=O)OCOC(=O)[C@@H]1N2C(=O)C[C@H]2S(=O)(=O)C1(C)C` [LE4, Sultamicillin Tosylate]: over 1000 µM; `C[C@@H](O)[C@H]1C(=O)N2C(C(=O)O)=C(S[C@@H]3CN[C@H](CNS(N)(=O)=O)C3)[C@H](C)[C@H]12` [LE5, Doripenem]: 148 µM; `CC1(C)S[C@@H]2[C@H](/N=C/N3CCCCCC3)C(=O)N2[C@H]1C(=O)O` [LE6, Mecillinam]: over 1000 µM. As to `CN(C)CCn1nnnc1SCC1=C(C(=O)O)N2C(=O)[C@@H](NC(=O)Cc3csc(N)n3)[C@H]2SC1` [LE8, Cefotiam hydrochloride], the IC50 was over 1000 µM. As for `C[C@@H](O)[C@H]1C(=O)N2C(C(=O)O)=C(S[C@@H]3CN[C@H](CNS(N)(=O)=O)C3)[C@H](C)[C@H]12` [LE10, Doripenem Hydrate], the IC50 was over 1000 µM. The same measure, in the same setting: to `N[C@@H](C(=O)N[C@@H]1C(=O)N2C(C(=O)O)=C(Cl)CS[C@H]12)c1ccccc1` [LE11, Cefaclor monohydrate] belongs over 1000 µM; to `C[C@@H](O)[C@H]1C(=O)N2C(C(=O)O)=C(S[C@@H]3CN[C@H](C(=O)N(C)C)C3)[C@H](C)[C@H]12` [LF1, Meropenem], over 1000 µM. For the compound `C[n+]1ccn(C[C@@]2(C)[C@H](C(=O)[O-])N3C(=O)C[C@H]3S2(=O)=O)n1` [LF2, AAI101], the IC50 was over 1000 µM. On to `CO/N=C(\C(=O)N[C@@H]1C(=O)N2C(C(=O)OCOC(=O)C(C)(C)C)=C(/C=C\c3scnc3C)CS[C@H]12)c1csc(N)n1` [LF3, Cefditoren pivoxil], for which the IC50 is over 1000 µM. With `CC1(C)S[C@@H]2[C@H](NC(=O)[C@H](NC(=O)N3CCNC3=O)c3ccccc3)C(=O)N2[C@H]1C(=O)O` [LF4, Azlocillin sodium], the concentration for half-maximal inhibition (IC50) was over 1000 µM. Still for that read-out and setting: next, `CCOc1ccc2ccccc2c1C(=O)N[C@@H]1C(=O)N2[C@@H]1SC(C)(C)[C@@H]2C(=O)O` [LF5, nafcillin sodium]: over 1000 µM; `O=C(O)C1=C(CSc2nnnn2CS(=O)(=O)O)CS[C@@H]2[C@H](NC(=O)[C@H](O)c3ccccc3)C(=O)N12` [LF9, Cefonicid sodium]: over 1000 µM; `CO/N=C(\C(=O)N[C@@H]1C(=O)N2C(C(=O)OC(C)OC(C)=O)=C(COC(N)=O)CS[C@H]12)c1ccco1` (stereo partly shown) [LF10, Cepazine]: over 1000 µM. With `CO/N=C(\C(=O)N[C@@H]1C(=O)N2C(C(=O)O)=C(COC(N)=O)CS[C@H]12)c1ccco1` [LF11, Cefuroxime sodium], the IC50 was determined as 111 µM. As for `CO/N=C(\C(=O)N[C@@H]1C(=O)N2C(C(=O)O)=C(CSC(=O)c3ccco3)CS[C@H]12)c1csc(N)n1` [LG1, Sodium ceftiofur], the IC50 was over 1000 µM.

Staying with this test, now noted: TDP1 IC50, 40 pM recombinant TDP1, 1 nM N14Y DNA substrate, 15 min, room temperature.
For `CON=C(C(=O)NC1C(=O)N2C(C(=O)OCOC(=O)C(C)(C)C)=C(C)CSC12)c1csc(N)n1` (stereo not shown) [LB3, Cefetamet pivoxil hydrochloride], the IC50 is over 1000 µM.

Staying with this test, now noted: read-out: TDP1 IC50.
Take `CC(=O)OCC1=C(C(=O)O)N2C(=O)[C@@H](NC(=O)CSc3ccncc3)[C@H]2SC1` [LA7, Cephapirin Benzathine]: the IC50 was over 1000 µM. Turning to `CO[C@@]1(NC(=O)CSC[C@@H](N)C(=O)O)C(=O)N2C(C(=O)O)=C(CSc3nnnn3C)CS[C@@H]21` [LE3, Cefminox Sodium], the IC50 was over 1000 µM. For `CC1(C)[C@H](C(=O)O)N2C(=O)C[C@H]2S1(=O)=O` [LE7, Sulbactam], the IC50 was found to be 595 µM.
